Data taken from ChEMBL document CHEMBL2439974, “Design and Synthesis of 4-(4-Benzoylaminophenoxy)phenol Derivatives As Androgen Receptor Antagonists” (ACS Med Chem Lett, 2013).
Active and inactive are the calls of the source. The calls are words filed in the database; no cut-off is given here.

Columns and labels:
[1] = biological target: Androgen receptor (Mus musculus) (UniProt P19091); experiment: Antagonist activity at androgen receptor in mouse SC3 cells assessed as inhibition of DHT-induced cell growth at 10 uM after 3 days by CCK-8/WST-8 assay relative to control; type: cell-based; details: SC-3
[2] = biological target: T1, Androgen receptor (Homo sapiens) (UniProt P10275); experiment: Antagonist activity at androgen receptor in human MDA-kb2 cells assessed as inhibition of DHT-induced luciferase activity at 10 uM after 24 hrs by chemiluminescence assay relative to control; type: cell-based
T1 sequence (whole entry): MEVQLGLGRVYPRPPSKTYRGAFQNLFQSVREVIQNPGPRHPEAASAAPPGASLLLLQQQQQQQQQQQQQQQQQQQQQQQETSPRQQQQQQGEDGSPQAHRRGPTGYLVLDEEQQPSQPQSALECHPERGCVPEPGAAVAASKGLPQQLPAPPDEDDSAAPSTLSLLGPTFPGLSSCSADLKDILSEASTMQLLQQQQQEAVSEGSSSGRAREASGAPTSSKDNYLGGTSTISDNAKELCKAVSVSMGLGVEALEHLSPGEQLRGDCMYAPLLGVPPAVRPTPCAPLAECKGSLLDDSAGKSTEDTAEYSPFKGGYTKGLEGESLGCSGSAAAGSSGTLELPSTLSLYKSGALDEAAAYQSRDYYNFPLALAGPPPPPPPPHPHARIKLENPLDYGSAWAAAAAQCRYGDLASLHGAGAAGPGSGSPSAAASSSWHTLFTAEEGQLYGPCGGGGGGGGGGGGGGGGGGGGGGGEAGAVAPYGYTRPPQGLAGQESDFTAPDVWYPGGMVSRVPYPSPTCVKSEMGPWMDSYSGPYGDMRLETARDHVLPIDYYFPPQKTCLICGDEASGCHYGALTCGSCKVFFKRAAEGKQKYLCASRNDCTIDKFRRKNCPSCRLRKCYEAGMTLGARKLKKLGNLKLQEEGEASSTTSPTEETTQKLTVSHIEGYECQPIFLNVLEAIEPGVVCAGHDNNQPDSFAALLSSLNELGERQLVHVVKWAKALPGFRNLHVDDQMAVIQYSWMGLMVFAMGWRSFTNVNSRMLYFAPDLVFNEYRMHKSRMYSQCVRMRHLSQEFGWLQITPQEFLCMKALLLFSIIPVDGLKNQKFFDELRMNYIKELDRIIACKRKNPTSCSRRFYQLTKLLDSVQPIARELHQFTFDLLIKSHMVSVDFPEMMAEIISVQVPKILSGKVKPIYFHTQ

PC-3 = experiment: Cytotoxicity against human PC3 cells assessed as growth inhibition after 3 days by WST-8 assay; type: functional, cell-based; details: PC-3, 72 h
Androgen receptor = biological target: T2, Androgen receptor (Homo sapiens, UniProt P10275); experiment: Displacement of [3H]-DHT from human GST-tagged androgen receptor LBD (627 to 919) expressed in Escherichia coli HB-101 after 15 hrs by liquid scintillation counting analysis
T2 sequence (P10275 whole entry): T1 sequence (whole entry)

Chain of Androgen receptor (Mus musculus) (P19091 whole entry): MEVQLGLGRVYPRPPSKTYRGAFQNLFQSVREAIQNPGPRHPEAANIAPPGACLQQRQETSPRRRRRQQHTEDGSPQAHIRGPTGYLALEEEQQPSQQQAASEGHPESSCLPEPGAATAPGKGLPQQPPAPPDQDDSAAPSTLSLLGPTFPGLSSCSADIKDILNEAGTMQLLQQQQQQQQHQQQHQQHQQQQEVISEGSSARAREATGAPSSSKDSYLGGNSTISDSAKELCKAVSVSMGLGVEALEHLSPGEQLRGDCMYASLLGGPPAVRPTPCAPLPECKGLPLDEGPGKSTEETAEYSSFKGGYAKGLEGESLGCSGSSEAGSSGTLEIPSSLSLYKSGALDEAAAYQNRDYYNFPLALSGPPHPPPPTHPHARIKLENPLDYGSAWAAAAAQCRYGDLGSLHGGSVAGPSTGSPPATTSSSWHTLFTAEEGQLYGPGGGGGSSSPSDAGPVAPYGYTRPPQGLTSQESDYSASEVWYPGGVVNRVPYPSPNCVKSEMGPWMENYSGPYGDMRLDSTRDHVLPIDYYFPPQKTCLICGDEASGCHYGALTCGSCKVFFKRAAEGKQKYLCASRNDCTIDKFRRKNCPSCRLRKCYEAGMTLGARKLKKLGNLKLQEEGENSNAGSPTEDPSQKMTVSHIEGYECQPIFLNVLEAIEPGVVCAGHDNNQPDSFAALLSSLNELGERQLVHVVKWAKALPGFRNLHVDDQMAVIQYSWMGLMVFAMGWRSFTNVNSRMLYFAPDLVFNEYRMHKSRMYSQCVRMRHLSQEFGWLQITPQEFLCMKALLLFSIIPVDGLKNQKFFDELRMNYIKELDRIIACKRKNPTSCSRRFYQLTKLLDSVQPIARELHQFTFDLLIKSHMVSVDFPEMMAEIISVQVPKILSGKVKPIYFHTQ

Row | Structure (SMILES) | growth inhibition (GI) [1] | inhibition [2] | IC50 (PC-3) [µM] | IC50 (Androgen receptor) [µM]
1 | O=C(Nc1ccc(Oc2ccc(O)cc2)cc1)c1ccc(O)cc1 | inactive | – | – | –
2 | COc1cccc(C(=O)Nc2cc(C)c(Oc3ccc(O)cc3)c(C)c2)c1 | – | 69% | > 10 | 5.4
3 | O=C(Nc1ccc(Oc2ccc(O)cc2)cc1)c1cccc(O)c1 | inactive | – | – | –
4 | COc1cccc(C(=O)Nc2ccc(Oc3ccc(O)cc3)cc2)c1 | – | 6% | 5.6 | 20
5 | COc1cccc(C(=O)Nc2ccc(Oc3ccc(O)cc3)c(C)c2)c1 | – | 66% | 5.7 | 9.2
6 | COc1cccc(C(=O)Nc2cnc(Oc3ccc(O)cc3)nc2)c1 | – | inactive | – | > 10
7 | O=C(Nc1ccc(Oc2ccccc2)cc1)c1ccccc1 | 20% | – | – | –
8 | COc1cccc(C(=O)Nc2ccc(Oc3ccc(O)cc3)nc2)c1 | – | inactive | – | > 10
9 | CC(C)(O)C(=O)Nc1ccc([N+](=O)[O-])c(C(F)(F)F)c1 | – | 60% | – | –
10 | CC(O)(CS(=O)(=O)c1ccc(F)cc1)C(=O)Nc1ccc(C#N)c(C(F)(F)F)c1 (stereo not drawn) [BICALUTAMIDE] | – | – | > 10 | –
